Results as given in patent US4529731A, “Thiadiazolediamine derivative with histamine H-2 receptor inhibiting properties” (American Home Products Corporation, priority 1983, dated 1985).
“Also recorded” adds a separate entry of the source.

Experiments:
[1] = system: spontaneous gastric acid secretion in cannulated rats; assay: inhibiting spontaneous gastric acid secretion in cannulated rats; assay type: in vivo, Male albino Sprague Dawley rats; settings: for time after which a significant response ceases: cimetidine 80 mg/kg, ranitidine 60 mg/kg
Source text: Male albino Sprague Dawley rats (200-300 g), purchased from Canadian Breeding Laboratories, were employed. Two gastric cannulas were implanted surgically in each rat as described by L. E. Borella and F. Herr, Gastroenterology, 61, 345 (1971). The rats were used two to three weeks after the operation at a time when their food intake and weight gain were similar to the food intake and weight gain of unoperated litter mates. […] Prior to each experiment, the plugs of the stomach cannulas of each rat were removed and the debris present in the stomach was flushed out with tepid saline passed through the cannulas. Thereafter, the lumen of the stomach was continuously perfused with saline introduced into the stomach through the forestomach cannula at a rate of 0.8-1.2 ml/min. […] On the basis of the hourly acid output, the rats were divided into equal groups so that the average acid output of all groups was similar. Saline (vehicle) or saline suspensions or solutions of the test compounds were administered intragastrically (i.g.) through the forestomach cannula, after having closed the antral cannula. During the one hour absorption period, the stomachs of the rats were not perfused. […] The average post-treatment hourly acid outputs of the test compound groups were compared to that of the saline group and the percent inhibition of acid output was calculated. Multiple statistical comparisons between groups was done using Dunnet's test, C. W. Dunnet, Journal of American Statistical Association, 50, 1096 (1955).

[2] = system: cold-restraint-induced gastric lesions; assay: development of cold-restraint-induced gastric lesions (ulcers); assay type: in vivo, male albino rats (Sprague-Dawley); settings: p.o.; for ULCER SCORE (MEAN ± S.E.): number of ulcers in glandular stomach
Description: Senay and R. J. Levine, Proc. Soc. Exp. Biol. Med., 124, 1221 (1967).
More explicitly exemplified, the beneficial effects were evaluated as follow: Food was withheld from male albino rats (165-175 g, Sprague-Dawley, Canadian Breeding Laboratories) for 24 hours but water was freely available. The object compound was administered orally in one milliliter of a liquid vehicle to the animals 30 minutes before placing the animals into restrainers. Just prior to being restrained, each animal was given orally 50 mg of sodium taurocholate. The vehicle empoloyed was saline containing polysorbate 80 (oleate ester of sorbitol and its anhydrides copolymerized with ethylene oxide), one drop per five milliliters of saline. The restrainers were made of plexiglass and restricted the movement of the rat to a minimum. The restrainers were placed in a cold environment (4°-5° C.) for three hours. The animals were sacrificed by cervical dislocation, the stomachs removed and the number of ulcers in the glandular portion of the stomach determined.

histamine H-2 receptors = assay: inhibition of histamine H-2 receptors (statement in words)
[3] = toxicity (statement in words)
[4] = 1 hr after dosing, peroral, object compound 80, cimetidine 80, ranitidine 60 mg/kg
[5] = 2 hr after dosing, peroral, object compound 80, cimetidine 80, ranitidine 60 mg/kg
[6] = 3 hr after dosing, peroral, object compound 80, cimetidine 80, ranitidine 60 mg/kg
[7] = 4 hr after dosing, peroral, object compound 80, cimetidine 80, ranitidine 60 mg/kg, cimetidine value = last statistically significant (*)
[8] = 5 hr after dosing, peroral, object compound 80, cimetidine 80, ranitidine 60 mg/kg, ranitidine value = last statistically significant (*)
[9] = 6 hr after dosing, peroral, object compound 80, ranitidine 60 mg/kg
[10] = 7 hr after dosing, peroral, object compound 80, ranitidine 60 mg/kg

| SMILES | % INHIBITION OF ACID OUTPUT AT VARIOUS TIMES (HR) AFTER DOSING [1, 4] [%] | % INHIBITION OF ACID OUTPUT AT VARIOUS TIMES (HR) AFTER DOSING [1, 5] [%] | % INHIBITION OF ACID OUTPUT AT VARIOUS TIMES (HR) AFTER DOSING [1, 6] [%] | % INHIBITION OF ACID OUTPUT AT VARIOUS TIMES (HR) AFTER DOSING [1, 7] [%] | % INHIBITION OF ACID OUTPUT AT VARIOUS TIMES (HR) AFTER DOSING [1, 8] [%] | % INHIBITION OF ACID OUTPUT AT VARIOUS TIMES (HR) AFTER DOSING [1, 9] [%] | % INHIBITION OF ACID OUTPUT AT VARIOUS TIMES (HR) AFTER DOSING [1, 10] [%] | time after which a significant response ceases ([1]; peroral) [h] | further results |
| --- | --- | --- | --- | --- | --- | --- | --- | --- | --- |
| CNC(=C[N+](=O)[O-])NCCSCc1ccc(CN(C)C)o1 [ranitidine, reference compound] | 69 | 81 | 65 | 63 | 44 | 39 | 6 | 6 | – |
| CN/C(=N/CCSCc1nc[nH]c1C)NC#N [cimetidine, reference compound] | 84 | 84 | 63 | 52 | 3 | – | – | 5 | – |
| CN(C)CCNc1n[s+]([O-])nc1NCCCOc1cccc(CN2CCCCC2)c1 (stereo not shown) [Object compound, N-[2-(dimethylamino)ethyl]-N'-[3-[3-[(1-piperidinyl)methyl]phenoxy]propyl]-1,2,5-thiadiazole-3,4-diamine, 1-oxide] | 88 | 95 | 96 | 95 | 94 | 85 | 61 | – | % INHIBITION (ulcer score) ([2]; 1 mg/kg): 44%; ULCER SCORE (MEAN ± S.E.) ([2]; 1 mg/kg): 10 ± 9; % INHIBITION (ulcer score) ([2]; 5 mg/kg, * p < 0.05): 89%; ULCER SCORE (MEAN ± S.E.) ([2]; 5 mg/kg): 2 ± 1; % INHIBITION (ulcer score) ([2]; 20 mg/kg, ** p < 0.01): 95%; ULCER SCORE (MEAN ± S.E.) ([2]; 20 mg/kg): 0.9 ± 0.5; inhibition of histamine H-2 receptors (histamine H-2 receptors): effective inhibitor of histamine H-2 receptors; also recorded: specifically inhibits H-2 histamine receptors; order of toxicity [3]: relatively low order of toxicity; % INHIBITION OF ACID OUTPUT AT VARIOUS TIMES (HR) AFTER DOSING ([1]; 8 hr after dosing, peroral, object compound 80 mg/kg): 52%; % INHIBITION OF ACID OUTPUT AT VARIOUS TIMES (HR) AFTER DOSING ([1]; 9 hr after dosing, peroral, object compound 80 mg/kg): 63%; % INHIBITION OF ACID OUTPUT AT VARIOUS TIMES (HR) AFTER DOSING ([1]; 10 hr after dosing, peroral, object compound 80 mg/kg): 64%; % INHIBITION OF ACID OUTPUT AT VARIOUS TIMES (HR) AFTER DOSING ([1]; 18 hr after dosing, peroral, object compound 80 mg/kg): 32%; % INHIBITION OF ACID OUTPUT AT VARIOUS TIMES (HR) AFTER DOSING ([1]; 19 hr after dosing, peroral, object compound 80 mg/kg, last statistically significant value (*)): 29%; % INHIBITION OF ACID OUTPUT AT VARIOUS TIMES (HR) AFTER DOSING ([1]; 20 hr after dosing, peroral, object compound 80 mg/kg): 7%; % INHIBITION OF 3 HOURS GASTRIC ACID OUTPUT ([1]; peroral dose 20 mg/kg, rat): 36%; % INHIBITION OF 3 HOURS GASTRIC ACID OUTPUT ([1]; peroral dose 40 mg/kg, rat): 65%; % INHIBITION OF 3 HOURS GASTRIC ACID OUTPUT ([1]; peroral dose 80 mg/kg, rat): 74%; duration of effect compared with cimetidine and ranitidine ([1]; peroral, object compound 80, cimetidine 80, ranitidine 60 mg/kg): longer acting effect; duration of action ([1]; rat, in vivo): long acting properties |
